# Measurements published in patent US20250115872A1, “GENERATION OF BROWN ADIPOCYTES FROM HUMAN PLURIPOTENT STEM CELLS” (The Brigham and Women's Hospital, Inc., priority 2022, published 2025).
# Test system: iPSC-BAs
# Test: Seahorse assay, oxygen consumption rate in iPSC-BAs
# Assay type: cell-based, human
# Experimental: FIGS. 8A-D: FIG. 8A—RT-qPCR analysis for UCP1 on 40 day old replated iPSC-derived adipogenic cultures treated with 10 μM forskolin or vehicle control DMSO treatment for 4 hours. Relative gene expression is shown as relative change to undifferentiated iPSC. Mean±SD, n=5, t-test, p<0.01. FIG. 8B—Measurement of glycerol released in culture medium 40 day old replated iPSC-derived adipogenic cultures treated with 10 μM forskolin or vehicle control DMSO treatment for 4 hours. Glycerol amount normalized using total protein amount. Mean±SD, n=4, t-test, p≤0.01. FIG. 8C—Measurement of fluorescent intensity of thermosensitive ERthermAC dye in iPSC derived precursors on day 20 of differentiation and brown adipocytes after 40 days of replating in response to 10 μM forskolin or vehicle control DMSO. Each data point represents Mean±SD, n=3, t-test, p=0.0009. FIG. 8D—Seahorse analysis to measure oxygen consumption rate in iPSC derived precursors on day 20 of differentiation and brown adipocytes after 40 days of replating in response to 1.5 μM oligomycin, 10 μM forskolin or vehicle control DMSO and 1 μM Rotenone and Antimycin (Rot/AA), respectively. Adipocytes or precursor cells were in XFe96 cell culture plates one week prior to the assay. […]
# Agilent Seahorse XFe96 Analyzer was used to measure oxygen consumption in live iPSC-BAs and precursor cells following manufacturer's instructions. […] Basal respiration was measured 3 times in the assay medium. […] Cells were then treated with 10 μM Forskolin (Sigma-Aldrich, F6886) or DMSO (Sigma-Aldrich, D2650) and oxygen consumption rate (OCR) was measured for 70 minutes (12 measurements). […] Cells were automatically segmented using custom code in Fiji and number of DAPI and mCherry positive cells were quantified. […]
# The process of thermogenesis is driven by the flow of protons through UCP1 in the mitochondrial inner membrane. To examine whether forskolin-induced thermogenesis in iPSC-BAs is coupled to proton leak in mitochondria, we measured oxygen consumption rate (OCR) with a Seahorse metabolic flux analyzer in 40 day-old replated cultures ([…]). […]
# [1] = 1 μM Rotenone and Antimycin (Rot/AA), last step, electron transport chain block
molecule,measurement,setting,value
CC[C@H]1/C=C/C=C/C[C@@H](C)[C@H](O)[C@@](C)(O)C(=O)[C@@H](C)[C@H](O)[C@@H](C)C(=O)[C@@H](C)[C@H](O)[C@@H](C)/C=C/C(=O)O[C@@H]2[C@H](C)[C@H](CC1)O[C@]1(CC[C@H](C)[C@H](C[C@@H](C)O)O1)[C@H]2C [Oligomycin],oxygen consumption rate (OCR),"1.5 μM Oligomycin alone, versus basal respiration",the OCR in cells decreased
C=C(C)[C@H]1Cc2c(ccc3c2O[C@@H]2COc4cc(OC)c(OC)cc4[C@@H]2C3=O)O1 [Rotenone],oxygen consumption rate (OCR),[1],drop of OCR
Antimycin,oxygen consumption rate (OCR),[1],drop of OCR
